Data set [1] can be described thus: approximate acute toxicity (method of MILLER and TAINTER). The following applies: in vivo; for mortality: read-out: lethality. The protocol:
The approximate acute toxicity is determined according to the method described by MILLER and TAINTER in Proc. Soc. Exp. Biol. Med. 57, 261, (1944).

A short description of data set [2]: test of the mnesic retention of exploratory activity (habituation). The following applies: Mus musculus, ip, 168 h, read-out: % of the diminution of the exploratory activity; for inhibition in vivo at 10 mg/kg: dose 10 mg/kg i.p. Format: in vivo, SWISS-WEBSTER male mice.
For data set [3] the following is noted: cited from earlier work; for vasodilatory activity: earlier patents and literature; for pharmacological activity as previously considered: up to the present, in the pharmacological field, earlier literature.
Data set [4] can be described thus: pharmacological study: stimulation or protection of cerebral functions. Format: in vivo. Conditions: thorough pharmacological study. As to the method:
The stimulating or protecting activities have been shown particularly by the test of the mnesic retention of exploratory activity carried out in accordance with the following method: in an ACTIMETRE APELAB apparatus (BOISSIER and SIMON, Arch. Inter. Pharmacodyn. 158, 212, (1965), the exploratory activity of SWISS-WEBSTER male mice was measured for 5 minutes, then the animals were given an intraperitoneal injection or oral administration of the derivatives of formula (I), the salts thereof or of physiological serum. After a week, the exploratory activity of the treated animals is again measured and the effect of the mnesic retention is measured by an habituation, i.e., by a statistically significant reduction (t of STUDENT in paired groups) of the exploratory activity.

Where [5] appears, read: dose 3 mg/kg i.p., retest after one week, mice.

Counter-ions that a name gives are not always drawn. Like-named read-outs stand apart in the source and are kept apart here.

Results on 16 compounds are retold here after US4500531A, “Therapeutical use of (1-cinnamoyl or 1-phenethylcarbonyl) piperazine derivatives” (priority 1982, dated 1985).

A word on the LD50: it is the dose at which mortality reaches 50%. Low readings indicate greater toxicity, high ones lower toxicity. For the compound `COc1cc(CCC(=O)N2CCN(CC(=O)NC(C)C)CC2)cc(OC)c1OC` [compound 70], the LD50 in data set [1] (po) was found to be 2000 mg/kg. For the same compound, the mortality in data set [1] (po, 2000 mg/kg p.o.) was determined as 0%. The inhibition in vivo at 30 mg/kg in data set [2] (dose 30 mg/kg i.p., retest after one week, mice) is 16.2%. Regarding `CCOC(=O)CN1CCN(C(=O)/C=C/c2cc(OC)c(OC)c(OC)c2)CC1`, in data set [3], the vasodilatory activity entry is “peripheral and coronary vasodilators”.

Consider `COc1cc(/C=C/C(=O)N2CCN(CC(=O)O)CC2)cc(OC)c1OC` [drawing 11], for which, in data set [3], the “pharmacological activity as previously considered” value (“pharmacological activity” below) is “non-active”. Regarding `COc1cc(/C=C\C(=O)N2CCN(CC(=O)N3CCCC3)CC2)cc(OC)c1OC` [Code Number 72, cis 1-(3,4,5-trimethoxy)cinnamoyl 4-pyrrolidinocarbonylmethyl)piperazine, oxalate], in data set [4], the “activity in the stimulation or protection of cerebral functions” value is recorded as “important activities in the stimulation or protection of cerebral functions”. The “pharmacological activity” value in data set [3] (listed as Ib) is “inactive”. For the compound `COc1cc(/C=C\C(=O)N2CCN(CC(=O)N3CCCC3)CC2)cc(OC)c1OC` [compound 72], in data set [2], the inhibition in vivo at 3 mg/kg was 21%. Regarding `COc1cc(/C=C/C(=O)N2CCN(CC(=O)N3CCCCCCC3)CC2)cc(OC)c1OC` [compound 67], in data set [1] (iv), the LD50 is 225 mg/kg. Further, the inhibition in vivo at 3 mg/kg in data set [2] (setting [5]) is 26.4%. Compound `COc1cc(/C=C/C(=O)N2CCN(CC(=O)N3CCCCC3)CC2)cc(OC)c1OC` [compound 66] showed an LD50 in data set [1] (po) of 2250 mg/kg. For the same compound, the inhibition in vivo at 3 mg/kg in data set [2] (setting [5]) was 35.2%. `COc1cc(/C=C/C(=O)N2CCN(CC(=O)NC(C)C)CC2)cc(OC)c1O` [compound 69] came in with an LD50 in data set [1] (po) of 2000 mg/kg. The mortality in data set [1] (po, 2000 mg/kg p.o.) was found to be 0%. In data set [2] (setting [5]), the inhibition in vivo at 3 mg/kg stood at 23.8%. With `COc1cc(/C=C\C(=O)N2CCN(CC(=O)N3CCCC3)CC2)cc(OC)c1OC` [drawing 13], in data set [3], the “pharmacological activity” value was “non-active”. The compound `COc1cc(/C=C/C(=O)N2CCN(CC(=O)O)CC2)cc(OC)c1OC` [compound 71] came in with a median lethal dose (LD50) in data set [1] (po) of 1000 mg/kg. The mortality in data set [1] (po, 1000 mg/kg p.o.) is 0%. Further, in data set [2] (dose 1 mg/kg i.p., retest after one week, mice), the inhibition in vivo at 1 mg/kg was 31.9%. `COc1cc(/C=C/C(=O)N2CCN(CC(=O)O)CC2)cc(OC)c1OC` [Code Number 71, trans 1-(3,4,5-trimethoxy)cinnamoyl 4-hydroxycarbonylmethyl piperazine, hydrochloride]: in data set [4], the “activity in the stimulation or protection of cerebral functions” value is listed as “important activities in the stimulation or protection of cerebral functions”. For the same compound, the “pharmacological activity” value in data set [3] (listed as Ia, hydrochloride) is “inactive”.

`COc1cc(/C=C/C(=O)N2CCN(CC(=O)N3CCCC3)CC2)cc(OC)c1OC`: the vasodilatory activity entry in data set [3] is “peripheral and coronary vasodilators”.

Regarding `COc1cc(/C=C/C(=O)N2CCN(CC(=O)NC(C)C)CC2)cc(OC)c1O` [drawing 16], in data set [3], the vasodilatory activity entry is “coronary vasodilator”. For the compound `COc1cc(/C=C/C(=O)N2CCN(CC(=O)NC(C)C)CC2)cc(OC)c1OC` [compound 65], in data set [1] (iv), the LD50 worked out at 475 mg/kg. In addition, the inhibition in vivo at 10 mg/kg in data set [2] (retest after one week, mice) worked out at 17.9%.

In data set [1] (iv), `COc1ccc(CCN(C)C(=O)CN2CCN(C(=O)/C=C/c3cc(OC)c(OC)c(OC)c3)CC2)cc1OC` [compound 68] came in with a median lethal dose (LD50) of 200 mg/kg. For the same compound, the inhibition in vivo at 10 mg/kg in data set [2] (retest after one week, mice) was 15.8%. Regarding `COc1cc(CCC(=O)N2CCN(CC(=O)NC(C)C)CC2)cc(OC)c1OC` [drawing 15], the vasodilatory activity result in data set [3] was “peripheral and coronary vasodilators”.
